# Laboratory results from patent US12589082B2, “Compositions comprising thymoquinone and additional biologically active compounds” (N.S. OILS LTD., priority 2019, dated 2026).
# Test system: NO production by LPS-stimulated cultured murine macrophages
# Assay: Inhibition of NO production (Griess nitrite assay) in LPS-stimulated cultured murine macrophages
# Type: cell-based, murine (ICR mice peritoneal macrophages; RAW264.7)
# Details: for inhibition at 0.269 µg/mL: beta-carotene alone at 0.269 μg/ml
# Procedure: The aim of this study was to investigate the effect of different combinations of NS oil and carotenoids on the in vitro production of the inflammatory mediator NO by LPS-stimulated cultured murine macrophages.
# Macrophage isolation and cell culture—Peritoneal macrophages were collected from the peritoneal cavity of 6-8 week old male ICR mice (Harlan, Israel) that had been given an intraperitoneal injection of 1.5 ml of thioglycollate broth (4%) 4 days before harvest. […] Peritoneal macrophages and murine macrophage cell line RAW264.7 were cultured RPMI 1640 medium containing 10% FCS, 2 mM L-glutamine; 100 U/ml penicillin; 100 μg/ml streptomycin (Beit-Haemek, Israel) in 96-well plates (1×10^6 cells/well) at 37° C. in 5% CO2 atmosphere. Cells were stimulated with LPS (0.1-1 μg/ml) in the presence or absence of NS oil acid and/or one or more of the following carotenoids: astaxanthin, lutein and beta-Carotene. The following stock solutions of each active agent were used to prepare the various dilutions tested: • Cold-pressed NS oil containing 3% thymoquinone and 1.7% free fatty acids (N.S. Oils, Israel). • Lutein 20% (Lycored Ltd., Israel) • Beta-carotene 30% in vegetable oil (Lycored Ltd., Israel) • Astaxanthin oleoresin extracted from microalgae, containing 10% astaxanthin (Algatech, Israel). • Lycopene (present at a concentration of 6.35% in the commercially-available product known as Lyc-O-Mato, obtained from Lycored Ltd., Israel).
# The carotenoids were dissolved in DMSO (to a final concentration of 5 mM). The mixture was vortexed and incubated in a water bath at 37° C. (with shaking) for 10 min and then sonicated in a sonicator bath three times for 15 seconds each time. Using this stock solution, the desired concentrations were prepared by the addition of appropriate volumes thereof to warm culture medium.
# Appropriate volumes of DMSO (0.1-0.2%) were added to the control tubes and the percent inhibition of NO production in each test tube was calculated in relation to its control.
# NO production assay—NO levels in supernatants of cell cultures were determined by assaying nitrite levels using Griess reagent and sodium nitrite as a standard as described in Green, L. C., Wagner, D. A., Glogowski, J., Skipper, P. L., Wishnok, J. S., and Tannenbaum, S. R. (1982) Anal Biochem. 126: 131-138. […]
smiles,measurement,setting,value
"C=C(C)[C@@H]1CCC(C)=C[C@H]1c1c(O)cc(CCCCC)cc1O [CBD, cannabidiol]",inhibition of NO production,"Example 2 first study, FIG. 8, CBD alone at 0.0075 μg/ml",did not results in a detectable level of NO inhibition
same,inhibition of NO production,"Example 2 second study, FIG. 9 upper, CBD alone at 0.005 μg/ml",measurable inhibition of NO production
same,inhibition at 0.01 µg/mL,"Mus musculus, Macrophage, read-out: inhibition of NO production",< 10%
CC1=C(/C=C/C(C)=C/C=C/C(C)=C/C=C/C=C(C)/C=C/C=C(C)/C=C/C2=C(C)C(=O)[C@@H](O)CC2(C)C)C(C)(C)C[C@H](O)C1=O [astaxanthin],inhibition of NO production,"Example 1 first study, FIG. 1, astaxanthin alone at 0.298 and 0.596 μg/ml, % of maximal inhibition",20-25%
same,inhibition at 0.298 µg/mL,"Mus musculus, Macrophage, Example 4, text summary, astaxanthin only, 0.298 μg/ml",~20%
same,inhibition at 0.298 µg/mL,"Mus musculus, Macrophage, Example 4 comparative, column 0.0015 μg/ml TQ of high-FFA NS oil dilution, astaxanthin 0.298 μg/ml, agent alone or combined as labelled",19.1%
same,inhibition at 0.298 µg/mL,"Mus musculus, Macrophage, Example 4 comparative, column 0.0030 μg/ml TQ of high-FFA NS oil dilution, astaxanthin 0.298 μg/ml, agent alone or combined as labelled",21.3%
same,inhibition at 0.298 µg/mL,"Mus musculus, Macrophage, second study, FIG. 4, astaxanthin alone at 0.298 μg/ml",19.1%
CC1=C(/C=C/C(C)=C/C=C/C(C)=C/C=C/C=C(C)/C=C/C=C(C)/C=C/C2=C(C)CCCC2(C)C)C(C)(C)CCC1 [beta-carotene],inhibition at 0.269 µg/mL,"Mus musculus, Macrophage, first study, FIG. 3",< 10%
same,inhibition at 0.538 µg/mL,"Mus musculus, Macrophage, first study, FIG. 3, beta-carotene alone at 0.538 μg/ml",< 20%
same,inhibition at 0.269 µg/mL,"Mus musculus, Macrophage, second study, FIG. 6",3.89%
CC1=C[C@H](O)CC(C)(C)[C@H]1/C=C/C(C)=C/C=C/C(C)=C/C=C/C=C(C)/C=C/C=C(C)/C=C/C1=C(C)C[C@@H](O)CC1(C)C [lutein],inhibition at 0.284 µg/mL,"Mus musculus, Macrophage, second study, FIG. 5, lutein alone at 0.284 μg/ml",6.96%
same,inhibition of NO production,"first study, FIG. 2, lutein alone at 0.284 μg/ml",did not cause any measurable degree of NO inhibition
CC(C)=CCC/C(C)=C/C=C/C(C)=C/C=C/C(C)=C/C=C/C=C(C)/C=C/C=C(C)/C=C/C=C(\C)CCC=C(C)C [lycopene],inhibition at 0.35 µg/mL,"Mus musculus, Macrophage, second study, FIG. 7, lycopene alone at 0.35 μg/ml",13.5%
